From PubChem BioAssay AID248 (DTP/NCI, 2004)
Values joined by “and” are separate entries in the source; they are usually repeats but may differ in a detail not shown here. Equal entries are not always repeated. Inconclusive results and toxic doses are left out. Rule as the data show it: active = T/C of 150% or more; inactive = T/C below 125%.

Tested on: L1210 leukemia ip in BDF1 mice, survival T/C
Assay: NCI In Vivo Anticancer Drug Screen. Data for tumor model L1210 Leukemia (intraperitoneal) in B6D2F1 (BDF1) mice
Settings: endpoint: mean survival time, higher = longer survival
Summary of the method: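 Read-out is survival time, reported as the treated-group measurement over the vehicle-control measurement.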

[1] = dose: 25.0 mg/kg/injection, schedule: Q04DX003 (ip), vehicle: Klucel (hydroxypropylcellulose) (HPC)
[2] = dose: 50.0 mg/kg/injection, schedule: Q04DX003 (ip), vehicle: Klucel (hydroxypropylcellulose) (HPC)
[3] = dose: 100.0 mg/kg/injection, schedule: Q04DX003 (ip), vehicle: Klucel (hydroxypropylcellulose) (HPC)
[4] = dose: 200.0 mg/kg/injection, schedule: Q04DX003 (ip), vehicle: Klucel (hydroxypropylcellulose) (HPC)
[5] = dose: 400.0 mg/kg/injection, schedule: Q04DX003 (ip), vehicle: Klucel (hydroxypropylcellulose) (HPC)
[6] = dose: 100.0 mg/kg/injection, schedule: Q01DX009 (ip), vehicle: Klucel (hydroxypropylcellulose) (HPC)
[7] = dose: 200.0 mg/kg/injection, schedule: Q01DX009 (ip), vehicle: Klucel (hydroxypropylcellulose) (HPC)
[8] = dose: 400.0 mg/kg/injection, schedule: Q01DX009 (ip), vehicle: Klucel (hydroxypropylcellulose) (HPC)
[9] = dose: 100.0 mg/kg/injection, schedule: Q04DX003 (ip), vehicle: saline with Tween-80
[10] = dose: 200.0 mg/kg/injection, schedule: Q04DX003 (ip), vehicle: saline with Tween-80
[11] = dose: 400.0 mg/kg/injection, schedule: Q04DX003 (ip), vehicle: saline with Tween-80
[12] = dose: 100.0 mg/kg/injection, schedule: Q01DX001 (ip), vehicle: carboxymethylcellulose (CMC)
[13] = dose: 200.0 mg/kg/injection, schedule: Q01DX001 (ip), vehicle: carboxymethylcellulose (CMC)
[14] = dose: 50.0 mg/kg/injection, schedule: Q01DX009 (ip), vehicle: Klucel (hydroxypropylcellulose) (HPC)

Measured: T/C

CCCCC(CC)NC(=O)c1cc(OC)c(OC)c(OC)c1 (stereo not given)
inactive: [1] 106 % of control | [2] 102 % of control | [3] 105 % of control | [4] 90 % of control | [5] 110 % of control

O=[N+]([O-])c1ccc(S(=O)(=O)OCC2CO2)cc1 (stereo not given)
inactive: dose: 100.0 mg/kg/injection, schedule: Q01DX008 (ip), vehicle: Klucel (hydroxypropylcellulose) (HPC) 108 % of control | dose: 200.0 mg/kg/injection, schedule: Q01DX008 (ip), vehicle: Klucel (hydroxypropylcellulose) (HPC) 95 % of control | dose: 400.0 mg/kg/injection, schedule: Q01DX008 (ip), vehicle: Klucel (hydroxypropylcellulose) (HPC) 89 % of control

CC(=O)c1cccc(NC(=O)Oc2ccc(Cl)cc2Cc2ccccc2)c1
inactive: [6] 101 % of control | [7] 101 % of control | [8] 95 % of control

CCCC1OC1CCC (stereo not given)
inactive: [9] 109 % of control | [10] 97 % of control | [11] 91 % of control

CC(=O)CC(=O)Nc1ccccc1Cl
inactive: [3] 89 % of control | [4] 92 % of control | [5] 96 % of control

O=C(O)c1cc(N=Nc2ncn[nH]2)ccc1O
inactive: dose: 87.5 mg/kg/injection, schedule: Q04DX003 (ip), vehicle: Klucel (hydroxypropylcellulose) (HPC) 96 % of control | dose: 175.0 mg/kg/injection, schedule: Q04DX003 (ip), vehicle: Klucel (hydroxypropylcellulose) (HPC) 97 % of control | dose: 350.0 mg/kg/injection, schedule: Q04DX003 (ip), vehicle: Klucel (hydroxypropylcellulose) (HPC) 100 % of control

CCOC(=O)Cc1ccc([N+](=O)[O-])cc1
inactive: [1] 94 % of control | [2] 105 % of control | [3] 104 % of control and 105 % of control | dose: 150.0 mg/kg/injection, schedule: Q04DX003 (ip), vehicle: Klucel (hydroxypropylcellulose) (HPC) 107 % of control | dose: 225.0 mg/kg/injection, schedule: Q04DX003 (ip), vehicle: Klucel (hydroxypropylcellulose) (HPC) 100 % of control

Cc1nc2ccccc2cc1C#N
inactive: [12] 118 % of control | [13] 118 % of control | dose: 400.0 mg/kg/injection, schedule: Q01DX001 (ip), vehicle: carboxymethylcellulose (CMC) 108 % of control

S=C(NCc1ccco1)Nc1ccccc1Cl
inactive: [6] 100 % of control | [7] 93 % of control

CC(=O)Oc1c(C)cc(O)c2ccccc12
inactive: [14] 96 % of control | [6] 111 % of control | [7] 100 % of control

CC(=O)Nc1ccc2ccccc2c1-c1c(N)ccc2ccccc12
inactive: dose: 100.0 mg/kg/injection, schedule: Q01DX009 (ip), vehicle: gum acacia 91 % of control | dose: 100.0 mg/kg/injection, schedule: Q04DX003 (ip), vehicle: gum acacia 97 % of control | dose: 200.0 mg/kg/injection, schedule: Q01DX009 (ip), vehicle: gum acacia 96 % of control | dose: 200.0 mg/kg/injection, schedule: Q04DX003 (ip), vehicle: gum acacia 92 % of control | dose: 400.0 mg/kg/injection, schedule: Q01DX009 (ip), vehicle: gum acacia 99 % of control | dose: 400.0 mg/kg/injection, schedule: Q04DX003 (ip), vehicle: gum acacia 101 % of control

CCCCCCCCCCC(N)P(=O)(O)O (stereo not given)
inactive: dose: 12.5 mg/kg/injection, schedule: Q01DX009 (ip), vehicle: saline with Tween-80 103 % of control | dose: 25.0 mg/kg/injection, schedule: Q01DX009 (ip), vehicle: saline with Tween-80 101 % of control | dose: 50.0 mg/kg/injection, schedule: Q01DX009 (ip), vehicle: saline with Tween-80 105 % of control | dose: 300.0 mg/kg/injection, schedule: Q01DX001 (ip), vehicle: saline 98 % of control

CC(C)(C)C(=O)Oc1ccc(C(C)(C)C)cc1
inactive: [6] 101 % of control | [3] 104 % of control | [7] 102 % of control | [4] 98 % of control | [8] 98 % of control | [5] 92 % of control

O=C1CN=C(c2ccccc2Cl)c2cc(Cl)ccc2N1
inactive: dose: 12.5 mg/kg/injection, schedule: Q01DX009 (ip), vehicle: Klucel (hydroxypropylcellulose) (HPC) 114 % of control | dose: 25.0 mg/kg/injection, schedule: Q01DX009 (ip), vehicle: Klucel (hydroxypropylcellulose) (HPC) 95 % of control | [1] 100 % of control | [14] 106 % of control | [2] 105 % of control | [6] 97 % of control | [3] 100 % of control | [7] 103 % of control | [4] 120 % of control

CC(=O)Nc1ccc(N(CCO)CCO)cc1
inactive: dose: 25.6 mg/kg/injection, schedule: Q04DX002 (ip), vehicle: saline with Tween-80 88 % of control | dose: 64.0 mg/kg/injection, schedule: Q04DX002 (ip), vehicle: saline with Tween-80 88 % of control | dose: 160.0 mg/kg/injection, schedule: Q04DX002 (ip), vehicle: saline with Tween-80 88 % of control | dose: 400.0 mg/kg/injection, schedule: Q04DX002 (ip), vehicle: saline with Tween-80 92 % of control

CC1(C)N=C(N)N=C(N)N1c1ccc(CCCCc2ccc(S(=O)(=O)F)cc2)c(Cl)c1
inactive: dose: 7.5 mg/kg/injection, schedule: Q01DX001 (ip), vehicle: saline 99 % of control | dose: 7.5 mg/kg/injection, schedule: Q04DX003 (ip), vehicle: saline 104 % of control | dose: 13.0 mg/kg/injection, schedule: Q01DX007 (ip), vehicle: saline with Tween-80 109 % of control | dose: 15.0 mg/kg/injection, schedule: Q01DX001 (ip), vehicle: saline 99 % of control | dose: 15.0 mg/kg/injection, schedule: Q04DX003 (ip), vehicle: saline 106 % of control | dose: 20.0 mg/kg/injection, schedule: Q01DX007 (ip), vehicle: saline with Tween-80 116 % of control | dose: 30.0 mg/kg/injection, schedule: Q01DX001 (ip), vehicle: saline 94 % of control | dose: 30.0 mg/kg/injection, schedule: Q01DX007 (ip), vehicle: saline with Tween-80 122 % of control | dose: 30.0 mg/kg/injection, schedule: Q04DX003 (ip), vehicle: saline 109 % of control | dose: 45.0 mg/kg/injection, schedule: Q01DX007 (ip), vehicle: saline with Tween-80 95 % of control

c1ccc(N2CCN(c3ccccc3)C2c2ccc3c(c2)CCC3)cc1
inactive: [9] 92 % of control | [10] 90 % of control | [11] 104 % of control

CSc1ccccc1NC(=O)c1ccccc1
inactive: dose: 100.0 mg/kg/injection, schedule: Q04DX002 (ip), vehicle: Klucel (hydroxypropylcellulose) (HPC) 93 % of control | dose: 200.0 mg/kg/injection, schedule: Q04DX002 (ip), vehicle: Klucel (hydroxypropylcellulose) (HPC) 86 % of control | dose: 400.0 mg/kg/injection, schedule: Q04DX002 (ip), vehicle: Klucel (hydroxypropylcellulose) (HPC) 96 % of control

O=c1cccccc1O.O=c1cccccc1O.O=c1cccccc1O.[Cr]
inactive: dose: 75.0 mg/kg/injection, schedule: Q04DX003 (ip), vehicle: saline 100 % of control | dose: 150.0 mg/kg/injection, schedule: Q04DX003 (ip), vehicle: saline 104 % of control | dose: 300.0 mg/kg/injection, schedule: Q04DX003 (ip), vehicle: saline 90 % of control

O=C(O)CSCc1ccc([N+](=O)[O-])cc1
inactive: [3] 100 % of control | [4] 100 % of control | [5] 100 % of control

OC[C@@H]1CC[C@H](n2cnc3c(Cl)ncnc32)C1
inactive: dose: 100.0 mg/kg/injection, schedule: Q01DX001 (ip), vehicle: saline 103 % of control | dose: 200.0 mg/kg/injection, schedule: Q01DX001 (ip), vehicle: saline 101 % of control | dose: 400.0 mg/kg/injection, schedule: Q01DX001 (ip), vehicle: saline 101 % of control

Cc1cc(Cl)c2cc(Cl)cc(Cl)c2n1
inactive: dose: 100.0 mg/kg/injection, schedule: Q01DX009 (ip), vehicle: saline 89 % of control | dose: 100.0 mg/kg/injection, schedule: Q04DX003 (ip), vehicle: saline 91 % of control | dose: 200.0 mg/kg/injection, schedule: Q01DX009 (ip), vehicle: saline 96 % of control | dose: 200.0 mg/kg/injection, schedule: Q04DX003 (ip), vehicle: saline 89 % of control | dose: 400.0 mg/kg/injection, schedule: Q04DX003 (ip), vehicle: saline 94 % of control

O=[N+]([O-])c1c[nH]c2ncnc(Cl)c12
inactive: dose: 50.0 mg/kg/injection, schedule: Q01DX001 (ip), vehicle: carboxymethylcellulose (CMC) 98 % of control | [12] 89 % of control | [13] 106 % of control
